In patent US6774139B1, “Dual function microbicides” (Parker Hughes Institute, priority 2000, dated 2004):
Where two headings read alike, the source gives them in different places.

What was measured:
[1] = partition coefficient n-octanol/water (Pa); format: physicochemical; details: UV absorption
Protocol: Partition of the test compounds between n-octanol and water as a measure of their lipophilicity was determined by taking the UV absorption of each compound in n-octanol, water-saturated n- octanol (1:1), and n-octanol-saturated water (1:1). The UV absorption maxima were determined by selecting a wavelength with the maximum absorption peak in the water-saturated octanol layer and the corresponding peak in the octanol-saturated water. Three absorption spectra were obtained for each compound. The partion coefficient (Pa) was calculated as the ratio of the compound concentration present in the lipid phase to the compound concentration present in the aqueous phase.

HIV-1 strain HTLVIIIB = assay: p24 antigen production in HIV-1 infected PBMCs; format: cell-based
Protocol: The HTLVIIIB strain of HIV-1 was propagated in CCRF-CEM cells and the virus stocks obtained from cell-free supernatants of infected cells were titered using MT-2 cells. Cell-free supernatants were harvested and frozen in 1 ml aliquots at −70° C.
Stock solutions (10 mM) of thiourea compounds were prepared in dimethylsulfoxide (DMSO). Cells were cultured for 7 days in 96-well microtiter plates (100 μl/well; 2×10^6 cells/ml, triplicate wells) in the presence and absence of various concentrations (0.001 μM to 100 μM) of the thioureas. Cells from non-infected controls were handled in the same way except the virus was omitted from the preparation. Aliquots of culture supernatants were removed from the wells on the 7th day after infection for p24 antigen as previously described. The p24 enzyme immunoassay was the unmodified kinetic assay available commercially (Coulter Corporation/Immunotech, Inc., Westbrook, Me.). The assay uses a murine monoclonal antibody (mAb) to the HIV core protein coated onto microwell strips to which the antigen present in the test culture supernatant sample binds. The plates were read on a ELISA reader (Molecular Devices, Sunnyvale, Calif.) at 650 nm and p24 levels, expressed as ng/ml, were calculated against known standards supplied by Coulter/Imrunotech, Inc. Percent viral inhibition was calculated by comparing the p24 values for the test substance-treated infected cells with the p24 values for untreated infected cells (i.e., virus controls). […]

[2] = biological target: T1, purified recombinant HIV-1 RT (Human immunodeficiency virus type 1 group M subtype B, UniProt P03366); assay: cell-free Quan-T-RT RT inhibition assay (scintillation proximity); format: biochemical; details: for IC50: purified recombinant HIV-1 RT, cell-free
T1 construct: purified recombinant HIV-1 RT
Protocol: Each of the thirty one thiourea compounds was tested for RT inhibitory activity against purified recombinant HIV-1 RT using the cell-free Quan-T-RT system (Amersham Corp., Arlington Heights, Ill.), which utilizes the scintillation proximity assay principle.

human sperm = assay: sperm immobilizing activity (SIA) by CASA; format: cell-based; details: for EC50: read-out: EC50 [SIA]
Protocol: To evaluate the effect of each of the 31 thiourea compounds on human sperm motility and kinematics, highly motile fractions of sperm were prepared from donor semen (n=8) by discontinuous (90-45%) gradient centrifugation using Enhance Plus medium (Conception Technologies, San Diego, Calif.) and the “swim-up” method. The swim-up method was used after density gradient centrifugation, washing, and resuspension of sperm in BWW-3% BSA. Pooled swim-up fraction was washed once prior to spermicidal assay.
All donor semen specimens were obtained after informed consent and in compliance with the guidelines of the Parker Hughes Institute Institutional Review Board. […] The stock solutions of thioureas were prepared in DMSO (100 mM) and diluted in assay medium to yield the desired concentrations (up to 1000 μM). Corresponding volume of DMSO (either 0.5% or 1%) was added to control tubes. After 3 hours of incubation at 37° C., the percentage of motile sperm was evaluated by CASA [53, 62-64]. The percent motilities were compared with sham-treated control suspensions of motile sperm.
For CASA, 5-μl of each sperm suspension was loaded into a 20-μm Microcell slide (Conception Technologies) in a counting chamber at 37° C. At least 5-8 fields per slide were scanned for analysis using a Hamilton Thome Integrated Visual Optical System (IVOS), version 10 instrument (Hamilton Thome Research Inc., Danvers, Mass.). Each field was recorded for 30 seconds. The computer calibrations were set at 30 frames at a frame rate of 30/second.
The sperm kinematics parameters that were determined included numbers of motile (MOT) and progressively (PRG) motile sperm; curvilinear velocity (VCL; a measure of the total distance traveled by a given sperm during the acquisition divided by the time elapsed); average path velocity (VAP; the spatially averaged path that eliminates the wobble of the sperm head), straight line velocity (VSL; the straight-line distance from beginning to end of track divided by time taken), beat cross frequency (BCF; frequency of sperm head crossing sperm average path), the amplitude of lateral head displacement (ALH; the mean width of sperm head oscillation), and the derivatives, straightness (STR=VSL/VAP×100) and linearity (LIN=VSL/VCL×100; departure of sperm track from a straight line). Data from each individual cell track were recorded and analyzed. At least 200 motile sperm were analyzed for each aliquot sampled.

[3] = Human immunodeficiency virus 1, PBMC, HIV-1 HTLVIIIB infected human PBMC, p24 antigen on 7th day, read-out: IC50 [p24]
[4] = Human immunodeficiency virus 1, PBMC, HIV-1 HTLVIIIB infected human PBMC, values in nM, read-out: IC50[p24]
[5] = motile human sperm, 3 hours at 37° C., CASA
[6] = Human immunodeficiency virus 1, PBMC, read-out: IC50 [p24]

SMILES | Pa, Partition coefficient [1] | IC50 (HIV-1 strain HTLVIIIB; [3]) | IC50 (HIV-1 strain HTLVIIIB; [4]) | IC50 ([2]; IC50 [rRT]) | EC50 (human sperm; [5]) | other results
S=C(NCCN1CCCCC1)Nc1ccc(Br)cn1 [HI 172] | 8.91 | < 1 nM | < 1 nM | 5800 nM | > 500000 nM | 
S=C(NCCN1CCCC1)Nc1ccc(Br)cn1 [HI 230] | 7.91 | 1000 nM |  | > 100000 nM | > 500000 nM | 
COc1ccc(CCNC(=S)Nc2ccc(Br)cn2)cc1OC [HI 232] | 22.7 |  |  | > 100000 nM | > 500000 nM | 
COc1ccc(OC)c(CCNC(=S)Nc2ccc(Br)cn2)c1 [HI 236] | 1.78 | < 1 nM | < 1 nM | 100 nM | > 500000 nM | 
COc1ccccc1CCNC(=S)Nc1ccc(Br)cn1 [HI 237] | 3.79 | 10 nM |  | 1000 nM | > 500000 nM | 
COc1cccc(CCNC(=S)Nc2ccc(Br)cn2)c1 [HI 239] | 1.07 | 3 nM | 1 to 10 nM | 400 nM | > 500000 nM | 
Fc1cccc(CCNC(=S)Nc2ccc(Br)cn2)c1 [HI 241] |  | < 1 nM | < 1 nM | 700 nM | > 500000 nM | 
Fc1ccc(CCNC(=S)Nc2ccc(Br)cn2)cc1 [HI 242] | 10.7 | 9 nM | 1 to 10 nM | 6400 nM | > 500000 nM | 
S=C(NCCc1ccc(Br)cc1)Nc1ccc(Br)cn1 [HI 243] | 4.16 | 70 nM |  | 900 nM | > 500000 nM | 
Cc1ccc(CCNC(=S)Nc2ccc(Br)cn2)cc1 [HI 244] | 1.49 | 30 nM |  | 700 nM | > 500000 nM | 
S=C(NCCc1cccc(Cl)c1)Nc1ccc(Br)cn1 [HI 254] | 6.20 | 10 nM |  | 3100 nM | > 500000 nM | 
S=C(NCCc1ccc(Cl)cc1)Nc1ccc(Br)cn1 [HI 255] | 2.23 | 1 nM | 1 to 10 nM | 400 to 6400 nM | 160000 nM | 
Oc1ccc(CCNC(=S)Nc2ccc(Br)cn2)cc1 [HI 256, N-[2-(4-hydroxyphenethyl)]-N′-[2-(5-bromopyridyl)]thiourea] | 2.93 |  |  |  | 233000 ± 68000 nM | IC50 (HIV-1 strain HTLVIIIB; [6]): 3060 nM
S=C(NCCN1CCNCC1)Nc1ccc(Br)cn1 [HI 258] | 5.92 | 2 nM | 2 nM | > 100000 nM | > 500000 nM | 
S=C(NCCc1ccccc1)Nc1ccc(Br)cn1 [HI 275] | 3.50 | 4 nM | 4 nM | 1250 nM | 361000 ± 31000 nM | 
FC(F)(F)c1ccc(NC(=S)NCCc2ccccc2)nc1 [HI 308, N-[2-(phenethyl)]-N′-[2-(5-trifluoromethylpyridinyl)]-thiourea] |  |  |  | > 100000 nM | > 500000 nM | anti-HIV activity (in words) [2]: inactive
FC(F)(F)c1ccc(NC(=S)NCCc2ccccn2)nc1 [HI 309] | 3.81 |  |  | 13900 nM | > 500000 nM | 
COc1ccc(OC)c(CCNC(=S)Nc2ccc(C(F)(F)F)cn2)c1 [HI 310, N-[2-(5-dimethoxyphenethyl)]-N′-[2-(5-trifluoromethylpyridinyl)]-thiourea] | 1.00 |  |  |  | 276000 ± 22000 nM | IC50 (HIV-1 strain HTLVIIIB; HIV-1 HTLVIIIB infected human PBMC, p24 antigen on 7th day, read-out: IC50 [p24]): 80 nM; IC50 ([2]; read-out: IC50 [rRT]): 2000 nM
Fc1ccccc1CCNC(=S)Nc1ccc(C(F)(F)F)cn1 [HI 311] | 5.13 | 90 nM |  | 600 nM | > 500000 nM | 
FC(F)(F)c1ccc(NC(=S)NCCN2CCCCC2)nc1 [HI 344] | 10.27 |  |  | > 100000 nM | 131000 nM | 
Fc1cccc(CCNC(=S)Nc2ccc(Br)cn2)c1 [HI 345] | 1.51 |  |  |  | > 500000 nM | IC50 ([2]; read-out: IC50 [rRT]): 700 nM
FC(F)(F)c1ccc(NC(=S)NCCC2=CCCCC2)nc1 [HI 347, N-[2-(5-trifluoromethylpyridinyl)]-N′-[2-(1-cyclohexenyl)ethyl]-thiourea] | 11.5 |  |  |  | 131000 ± 4000 nM | IC50 (HIV-1 strain HTLVIIIB; [6]): 79 nM; anti-HIV activity, fold less active than halo functionalized derivatives (HIV-1 strain HTLVIIIB; versus PHI-346 and PHI-445): 26 fold; effective 100% inhibitory concentration (EC100), sperm motility (human sperm; FIG. 1, CASA): 0.25 mM; SIA, fold less active than halo functionalized derivatives (human sperm; versus PHI-346 and PHI-445): two to three-fold less active
S=C(NCCc1cccs1)Nc1ccc(Br)cn1 [HI 443] |  |  |  | 5300 nM | > 500000 nM | IC50 (HIV-1 strain HTLVIIIB; [6]): 30 nM
CC1(C)C2CCC(CNC(=S)Nc3ccc(Br)cn3)C1C2 (stereo not drawn) [HI 444] | 2.1 |  |  |  | > 500000 nM | anti-HIV activity (in words) [2]: loss of anti-HIV activity; IC50 ([2]; read-out: IC50 [rRT]): > 100000 nM
S=C(NCCC1=CCCCC1)Nc1ccccn1 [HI-541] |  | 10 nM |  | 5300 nM | > 500000 nM | 
S=C(NCCc1ccccn1)Nc1ccc(Br)cn1 [Trovirdine, reference compound] | 5.3 |  |  |  |  | IC50 (HIV-1 strain HTLVIIIB; [6]): 7 nM; SIA / sperm motility (in words) (human sperm): lacked SIA; EC50 (human sperm; Homo sapiens, Sperm, 3 h): > 500000 nM
